Values joined by “and” are separate entries in the source; they are usually repeats but may differ in a detail not shown here. Equal values may be shown once.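 Method: 48-hour compound exposure of cells in 96-well plates, five concentrations, linear interpolation of endpoints. Abbreviation: GI50, concentration required for 50% inhibition of growth. TGI: concentration producing complete growth inhibition.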 Where a SMILES comes first, the peptide text is derived from it. [ ]: non-standard residue; d: D form. Phe(4-Cl) = N[CH](Cc1ccc(Cl)cc1)C(=O)O
What was measured:
Experiment in all cases: inhibition of tumour cell growth, NCI panel, 48 h
HS 578T breast = test system: HS 578T breast
LXFL 529 NSCLC = test system: LXFL 529 NSCLC
SNB-78 CNS = test system: SNB-78 CNS
RXF-631 renal = test system: RXF-631 renal
XF 498 CNS = test system: XF 498 CNS
DLD-1 colon = test system: DLD-1 colon
M19-MEL melanoma = test system: M19-MEL melanoma
DMS 114 small cell lung = test system: DMS 114 small cell lung
MDA-N = test system: MDA-N

Structure (SMILES) | GI50 (HS 578T breast) [µM] | TGI (HS 578T breast) [µM] | TGI (LXFL 529 NSCLC) [µM] | TGI (SNB-78 CNS) [µM] | TGI (DLD-1 colon) | TGI (M19-MEL melanoma) [µM] | TGI (DMS 114 small cell lung) | also measured
CC1CN1CC(O)C(O)CN1CC1C (configuration not stated) | 11.3 | 57.4 | – | – | – | – | – | –
CC(O)C(NC(=O)C(Cc1ccccc1)NC(=O)C(NC(=O)C(CCCCN)NC(=O)C(Cc1c[nH]c2ccccc12)NC(=O)C(Cc1ccc(O)cc1)NC(=O)C(Cc1ccc(Cl)cc1)NC(=O)C(N)Cc1ccccc1)C(C)O)C(N)=O (configuration not stated) (H-F[Phe(4-Cl)]YWKTFT-NH2; configuration not given here) | – | – | 39.4 | 61 | 59.5 µM | 40.2 | 37.8 µM | TGI (RXF-631 renal): 42.4 µM; TGI (XF 498 CNS): 28.9 µM
O=C(N/N=C/c1cccc(O)c1O)c1ccccc1 | 10.5 | > 100 | – | – | – | – | – | –
CC(C)(C)OC(=O)Cc1ccc2c(ccn2Cc2ccccc2)c1 | – | – | > 100 | > 100 | > 100 µM | > 100 | > 100 µM | TGI (RXF-631 renal): > 100 µM
CC(=O)OC1CC(O)C23COC(O)C1(C)C2CC(O)C1(C)C3C(=O)C(O)C2(C)C(c3ccoc3)CC3OC321 (configuration not stated) | – | – | – | – | – | – | – | GI50 (MDA-N): 0.0178 µM; TGI (MDA-N): > 100 µM
CCCCCCCC(CC(=O)NC(CO)C(=O)NC(CO)CC(C)C)OC(=O)CC(CCCCCCC)OC(=O)CC(CCCCCCC)OC1OC(C)C(O)C(OC2OC(C)C(O)C(OC(C)=O)C2O)C1O (configuration not stated) | – | 20.3 | – | – | – | – | – | TGI (MDA-N): 19.5 µM
Cc1ccccc1N(CCC#N)C1=NN(C(=O)CC(=O)Nc2ccccc2)C(c2ccccc2)C1 (configuration not stated) | – | – | > 100 | > 100 | > 100 µM | > 100 | – | TGI (RXF-631 renal): > 100 µM
O=c1cccccc1NCCCNc1cccccc1=O | – | – | > 100 | > 100 | – | > 100 | > 100 µM | TGI (RXF-631 renal): > 100 µM; TGI (XF 498 CNS): > 100 µM
O=C1c2ccccc2-c2c1c1ccccc1c(=O)n2Cc1ccccc1 | – | > 100 | – | – | – | – | – | TGI (MDA-N): > 100 µM
COc1ccc2c(c1)C(=O)c1c-2n(CCCn2ccnc2)c(=O)c2ccccc12 | 1.49 | 17.8 | – | – | – | – | – | –
CCOC(=O)c1cc(/C(=N\O)c2cc(OC)c(OC)c(OC)c2)n2cc(C)cc(C)c12 | 2.7 | > 100 | – | – | – | – | – | –
CCOC(=O)c1c(CN2CCN(c3ccccc3)CC2)n(-c2ccccc2)c2cc(Br)c(O)cc12 | 14.4 | > 100 | – | – | – | – | – | –
COc1ccc(C(=O)c2cc(C)c(OC)c(C)c2)c(OC)c1N(C(=O)C(Cl)Cl)C(=O)C(Cl)Cl | 0.0277 | > 100 | – | – | – | – | – | –
CCN1C(=O)CNc2ncc(-c3ccc(-c4ncn[nH]4)nc3C)nc21 | 0.111 | 0.526 | – | – | – | – | – | –
CN(C)CC/C(=N\Nc1c(Cl)cccc1Cl)c1ccccc1 | – | – | 29.5 | 62.1 | > 100 µM | 33.6 | 34 µM | –
O=C(CCl)Nc1ccc(Cl)cc1 | 3.96 | 42.4 | – | – | – | – | – | –
O=C1NC(=O)c2ccc([N+](=O)[O-])c3cccc1c23 | – | 61 | – | – | – | – | – | TGI (MDA-N): 26.8 µM

Structure (SMILES) | GI50 (HS 578T breast) [µM] | TGI (HS 578T breast) [µM] | TGI (LXFL 529 NSCLC) [µM] | TGI (SNB-78 CNS) [µM] | TGI (DLD-1 colon) | TGI (M19-MEL melanoma) [µM] | TGI (DMS 114 small cell lung) | also measured
NCCCC[C@@H]1NC(=O)[C@H]2CCCN2C(=O)[C@H](Cc2ccccc2)NC(=O)[C@H](Cc2ccccc2)CNC1=O | > 100 | > 100 | – | – | – | – | – | –
COc1ccc(N2C(=O)C3c4[nH]c5ccc(C)cc5c4C4CCC(C(C)(C)C)CC4C3C2=O)cc1 (configuration not stated) | – | 9.89 | – | – | – | – | – | –
Cc1cn2c(/C=C3/C(=O)N(C)c4ccccc43)c(C)nc2s1 | 9.59 | 50.4 | – | – | – | – | – | –
CC(=O)OC[C@]12CC[C@H]3[C@@H](C[C@H]4O[C@]45[C@@H](O)C=CC(=O)[C@]35C)[C@@H]1CC[C@@H]2[C@H](C)[C@H]1CC(C)=C(C)C(=O)O1 | – | – | 0.824 | 1.84 | 0.649 µM and 0.31 µM | 2.32 | 0.823 µM and 1.12 µM | GI50 (LXFL 529 NSCLC): 0.347 µM and 0.219 µM; GI50 (SNB-78 CNS): 0.453 µM and 0.321 µM; GI50 (RXF-631 renal): 0.679 µM and 0.987 µM; TGI (RXF-631 renal): 2.74 µM; GI50 (XF 498 CNS): 0.422 µM and 0.234 µM; TGI (XF 498 CNS): 0.799 µM and 0.581 µM; GI50 (DLD-1 colon): 0.273 µM and 0.129 µM; GI50 (M19-MEL melanoma): 0.598 µM and 0.515 µM; GI50 (DMS 114 small cell lung): 0.324 µM and 0.357 µM
COc1cc(OC(=O)c2c(O)cc(O)c(O)c2C)cc(C)c1C(=O)Oc1cc(C)c(C(=O)O)c(O)c1 | – | – | > 100 | > 100 | > 100 µM | > 100 | > 100 µM | TGI (RXF-631 renal): > 100 µM; TGI (XF 498 CNS): > 100 µM
COC(=O)C1=NC(=S)NC(c2ccccc2)C1c1nc2ccccc2s1 (configuration not stated) | – | – | > 100 | > 100 | > 100 µM | > 100 | > 100 µM | TGI (RXF-631 renal): > 100 µM
CC(C)c1ccc(C(=O)Nc2sc3c(c2C(N)=O)CCC(=O)C3)cc1 | 0.534 | 5.27 | – | – | – | – | – | –
CC1(C)C2CC(O)C1(C)CC2=O (configuration not stated) | – | > 100 | – | – | – | – | – | TGI (MDA-N): > 100 µM
CC(=O)[CH-]C(=O)c1ccccc1.CC(=O)[CH-]C(=O)c1ccccc1.O=C([O-])c1ccc([O-])cc1.O=C([O-])c1ccc([O-])cc1.[Ti+4] | – | – | > 100 | – | > 100 µM | – | – | GI50 (LXFL 529 NSCLC): 31.1 µM; GI50 (DLD-1 colon): > 100 µM
Cc1cc(C)c(C(=O)CC(=O)c2cccnc2)c(C)c1 | 9.4 | > 100 | – | – | – | – | – | –
COc1ccc2c(c1)C=C([N+](=O)[O-])C(C1OC(C)(C)OC1C1COC(C)(C)O1)O2 (configuration not stated) | – | > 100 | 13.8 | 11.8 | 3.15 µM | 3.31 | 8.55 µM | TGI (XF 498 CNS): 22.9 µM
O=C(O)CP(=S)(S)c1ccccc1 (configuration not stated) | – | – | > 100 | > 100 | > 100 µM | > 100 | > 100 µM | TGI (XF 498 CNS): > 100 µM
CN(C)P(=O)(/C(N)=N/Nc1ccc([N+](=O)[O-])cc1)N(C)C | – | – | > 100 | > 100 | > 100 µM | > 100 | > 100 µM | TGI (XF 498 CNS): > 100 µM
Cc1ccc(Nc2nc3c(s2)C(=O)c2ccccc2C3=O)c(C)c1 | – | – | 28.7 | 43.6 | 31.4 µM | 5.71 | 24.1 µM | TGI (XF 498 CNS): 36.2 µM
CCOC(=O)NC(=O)c1cn(CCOCCOC(=O)NCCCCCCNC(=O)OCCOCCn2cc(C(=O)NC(=O)OCC)c(=O)[nH]c2=O)c(=O)[nH]c1=O | – | – | > 100 | > 100 | > 100 µM | > 100 | > 100 µM | TGI (RXF-631 renal): > 100 µM
CC1=C2C(=O)O[C@@H](c3ccoc3)[C@]2(C)CCC1 | – | – | > 100 | > 100 | > 100 µM | > 100 | > 100 µM | TGI (XF 498 CNS): > 100 µM

From PubChem BioAssay (NCI)
